Paper PMC7180572, “5-Alkylamino-N-phenylpyrazine-2-carboxamides: Design, Preparation, and Antimycobacterial Evaluation” (Molecules, 2020)
In brackets after ≈: the same amount, converted by molar mass. Read-outs that look alike come from different tables or passages of the source.

What was measured:
[1] = tested on: Acinetobacter baumanii ATCC 19606, DSM 30007; experiment: Antibacterial microdilution broth method (EUCAST); format: cell-based; settings: Acinetobacter baumannii
[2] = tested on: Trichophyton interdigitale ATCC 9533, CCM 8377; experiment: Antifungal microdilution broth method (EUCAST); format: cell-based; settings: read-out: MIC TI
[3] = tested on: Absidia corymbifera CCM 8077 (Lichtheimia corymbifera); experiment: Antifungal microdilution broth method (EUCAST); format: cell-based; settings: read-out: MIC AC
[4] = tested on: Staphylococcus aureus spp.aureus ATCC 29213, CCM 4223; experiment: Antibacterial microdilution broth method (EUCAST); format: cell-based; settings: read-out: MIC SA
[5] = tested on: Candida parapsilosis ATCC 22019, CCM 8260; experiment: Antifungal microdilution broth method (EUCAST); format: cell-based; settings: Lodderomyces parapsilosis, read-out: MIC CP
[6] = tested on: Aspergillus fumigatus ATCC 204305; experiment: Antifungal microdilution broth method (EUCAST); format: cell-based; settings: read-out: MIC AF
[7] = tested on: Candida krusei ATCC 6258, CCM 8271; experiment: Antifungal microdilution broth method (EUCAST); format: cell-based; settings: Pichia kudriavzevii, read-out: MIC CK
HepG2 cells = experiment: HepG2 cytotoxicity, CellTiter 96 (MTS) assay; format: cell-based, human; settings: Homo sapiens, read-out: HepG2 IC50
[8] = tested on: Staphylococcus aureus methicillin resistant ATCC 43300, CCM 4750; experiment: microbe, parasite or virus in culture; format: cell-based; settings: ATCC 43300 / CCM 4750 / MRSA, read-out: MIC MRSA
[9] = tested on: Staphylococcus epidermidis ATCC 12228, CCM 4418; experiment: Antibacterial microdilution broth method (EUCAST); format: cell-based; settings: read-out: MIC SE
[10] = tested on: Mycobacterium tuberculosis H37Ra ITM-M006710 (ATCC 9431); experiment: Microdilution broth, modified Microplate Alamar Blue Assay, whole cell growth inhibition; format: cell-based; settings: Mycobacterium tuberculosis; in vitro, Middlebrook 7H9 broth, resazurin; read-out: MIC Mtb H37Ra
[11] = tested on: Mycobacterium aurum DSM 43999 (ATCC 23366); experiment: as above; format: cell-based; settings: Mycolicibacterium aurum, read-out: MIC Mycobacterium aurum
[12] = tested on: Enterococcus faecalis ATCC 29212, CCM 4224; experiment: Antibacterial microdilution broth method (EUCAST); format: cell-based; settings: read-out: MIC EF
[13] = tested on: Candida albicans ATCC 24433, CCM 8320; experiment: Antifungal microdilution broth method (EUCAST); format: cell-based; settings: read-out: MIC CA
[14] = tested on: Aspergillus flavus CCM 8363; experiment: Antifungal microdilution broth method (EUCAST); format: cell-based; settings: read-out: MIC AFla
[15] = tested on: Pseudomonas aeruginosa ATCC 27853, CCM 3955; experiment: Antibacterial microdilution broth method (EUCAST); format: cell-based; settings: read-out: MIC PA
[16] = tested on: Escherichia coli ATCC 25922, CCM 3954; experiment: Antibacterial microdilution broth method (EUCAST); format: cell-based; settings: read-out: MIC EC
[17] = tested on: Mycobacterium smegmatis DSM 43465 (ATCC 607); experiment: Microdilution broth, modified Microplate Alamar Blue Assay, whole cell growth inhibition; format: cell-based; settings: Mycolicibacterium smegmatis, read-out: MIC Mycobacterium smegmatis
[18] = tested on: Candida tropicalis ATCC 750, CCM 8264; experiment: Antifungal microdilution broth method (EUCAST); format: cell-based; settings: read-out: MIC CT
[19] = tested on: Klebsiella pneumoniae ATCC 10031, CCM 4415; experiment: Antibacterial microdilution broth method (EUCAST)
[20] = format: physicochemical
Procedure: As a complementary test, final compounds were tested for in vitro activity against selected fungal and bacterial pathogens of clinical importance. The microdilution broth method was performed according to The European Committee on Antimicrobial Susceptibility Testing (EUCAST) instructions with slight modifications. The minimum inhibitory concentration was expressed in µM. Not all compounds were evaluated due to the fact of a problem with solubility which occurred for 18 samples. […] See Supplementary Materials for the list of tested strains, methodology, and full results.

[21] = HepG2, 24 h incubation, > means higher concentration not reproducible due to precipitation
[22] = in vitro, Middlebrook 7H9 broth, resazurin

**Q.** Which results are given for CCCCCCCNc1cnc(C(=O)Nc2ccc(CC)cc2)cn1 [Compound 5e, N-(4-ethylphenyl)-5-(heptylamino)pyrazine-2-carboxamide]?
**A.** MIC ([1]; 24h): > 500 µM; MIC ([1]; 48h): > 500 µM; MIC ([2]; 72 h): > 125 µM; MIC ([2]; 120 h): > 125 µM; MIC ([3]; CCM8077, 24 h): > 125 µM; MIC ([3]; CCM8077, 48 h): > 125 µM; MIC ([4]; 24 h): > 500 µM; MIC ([4]; 48 h): > 500 µM; MIC ([5]; 24 h): > 125 µM; MIC ([5]; 48 h): > 125 µM; MIC ([6]; ATCC204305, 24 h): > 125 µM; MIC ([6]; ATCC204305, 48 h): > 125 µM; MIC ([7]; 24 h): > 125 µM; MIC ([7]; 48 h): > 125 µM; IC50 (HepG2 cells; HepG2, 24 h): > 25 µM; MIC ([8]; 24 h): > 500 µM; MIC ([8]; 48 h): > 500 µM; MIC ([9]; 24 h): > 500 µM; MIC ([9]; 48 h): > 500 µM; MIC [10]: ≥ 500 µg/mL; MIC [11]: ≥ 500 µg/mL; MIC ([12]; 24 h): > 500 µM; MIC ([12]; 48 h): > 500 µM; MIC ([13]; 24 h): > 125 µM; MIC ([13]; 48 h): > 125 µM; melting point: 131 to 132 °C; MIC ([14]; CCM8363, 24 h): > 125 µM; MIC ([14]; CCM8363, 48 h): > 125 µM; MIC ([15]; 72 h): > 500 µM; MIC ([15]; 120 h): > 500 µM; MIC ([16]; 24 h): > 500 µM; MIC ([16]; 48 h): > 500 µM; MIC [17]: ≥ 500 µg/mL; MIC ([18]; 24 h): > 125 µM; MIC ([18]; 48 h): > 125 µM; MIC KP ([19]; 24h): > 500 µM; MIC KP ([19]; 48h): > 500 µM

**Q.** Which results are given for CCCCCCCCNc1cnc(C(=O)Nc2ccc(CC)cc2)cn1 [Compound 5f, N-(4-ethylphenyl)-5-(octylamino)pyrazine-2-carboxamide]?
**A.** Solubility problem in antibacterial/antifungal testing [20]: precipitated in both growth media; IC50 (HepG2 cells; [21]): > 10 µM; MIC [10]: ≥ 250 µg/mL; MIC [11, 22]: ≥ 250 µg/mL; melting point: 131 to 132 °C; MIC [17, 22]: ≥ 250 µg/mL

**Q.** With CCCCCCCCNc1cnc(C(=O)Nc2ccc(Cl)cc2O)cn1 [Compound 6f, N-(4-chloro-2-hydroxyphenyl)-5-(octylamino)pyrazine-2-carboxamide] as the compound, how does the “Solubility problem in antibacterial/antifungal testing” value [20] read?
**A.** did not dissolve in DMSO

**Q.** What about the IC50 (HepG2 cells; [21]) of the same compound?
**A.** > 50 µM

**Q.** And the MIC [10]?
**A.** ≥ 500 µg/mL

**Q.** What about the MIC [11, 22] of the same compound?
**A.** ≥ 500 µg/mL

**Q.** What about the melting point of the same compound?
**A.** 196.9 to 197.9 °C

**Q.** What about the MIC [17, 22] of the same compound?
**A.** 7.81 µg/mL (≈ 20.7 µM)

**Q.** Which results are given for CCCNc1cnc(C(=O)Nc2cc(Cl)ccc2O)cn1 [Compound 7a, N-(5-chloro-2-hydroxyphenyl)-5-(propylamino)pyrazine-2-carboxamide]?
**A.** Solubility problem in antibacterial/antifungal testing [20]: did not dissolve in DMSO; IC50 (HepG2 cells; [21]): > 25 µM; MIC [10]: ≥ 500 µg/mL; MIC [11, 22]: 250 µg/mL (≈ 815 µM); melting point: 254 to 259 °C; MIC [17, 22]: < 3.91 µg/mL

**Q.** What does the source list for CCCCNc1cnc(C(=O)Nc2cc(Cl)ccc2O)cn1 [Compound 7b, 5-(Butylamino)pyrazine-N-(5-chloro-2-hydroxyphenyl)-2-carboxamide]?
**A.** Solubility problem in antibacterial/antifungal testing [20]: did not dissolve in DMSO; IC50 (HepG2 cells; [21]): > 25 µM; MIC [10]: ≥ 500 µg/mL; MIC [11, 22]: ≥ 500 µg/mL; melting point: 257.9 to 262.1 °C; MIC [17, 22]: 3.91 µg/mL (≈ 12.2 µM)

**Q.** With CCCCCNc1cnc(C(=O)Nc2cc(Cl)ccc2O)cn1 [Compound 7c, N-(5-chloro-2-hydroxyphenyl)-5-(pentylamino)pyrazine-2-carboxamide] as the compound, how does the “Solubility problem in antibacterial/antifungal testing” value [20] read?
**A.** did not dissolve in DMSO

**Q.** What about the IC50 (HepG2 cells; [21]) of the same compound?
**A.** > 25 µM

**Q.** What about the MIC [10] of the same compound?
**A.** ≥ 500 µg/mL

**Q.** And the MIC [11, 22]?
**A.** ≥ 500 µg/mL

**Q.** And the melting point?
**A.** 250.3 to 255.1 °C

**Q.** And the MIC [17, 22]?
**A.** ≥ 500 µg/mL

**Q.** Which results are given for CCCCCCNc1cnc(C(=O)Nc2cc(Cl)ccc2O)cn1 [Compound 7d, N-(5-chloro-2-hydroxyphenyl)-5-(hexylamino)pyrazine-2-carboxamide]?
**A.** Solubility problem in antibacterial/antifungal testing [20]: did not dissolve in DMSO; IC50 (HepG2 cells; [21]): > 25 µM; MIC [10]: ≥ 500 µg/mL; MIC [11, 22]: ≥ 500 µg/mL; melting point: 249.3 to 251.9 °C; MIC [17, 22]: ≥ 500 µg/mL
